According to patent publication US20050049295A1, “Process for the preparation of 5-(2-(4-(1,2-benzisothiazol-3-yl)-1piperazinyl) ethyl)-6-chloro-1, 3-dihydro-2h-indol-2-one hydrochloride (ziprasidone hydrochloride) and its intermediate” (DR. REDDY'S LABORATORIES LIMITED, priority 2003, published 2005):

Columns and labels:
Assay type in all cases: physicochemical
[1] = Stability study with normal packing (without inert atmosphere), 40° C. and 75% relative humidity; details: 40° C./75% RH
Procedure: Stability study with normal packing (without inert atmosphere): Initial and up to two-month stability profile with normal packing was carried out at 40° C. and 75% relative humidity conditions as follow: […]

[2] = Stability study with improved packing (inert atmosphere), 40° C. and 75% relative humidity; details: 40° C./75% RH
Excerpt: (§1) Ziprasidone hydrochloride prepared by the present invention can be packed with a specific process to prevent from hydrating or to improve stability during the storage or transporting of ziprasidone hydrochloride products. This can be achieved by storing the active substance in inert atmosphere, which is technologically and economically simple. The active substance Ziprasidone HCl is stored in polythene bag or containers. The inert atmosphere may be made by nitrogen or argon or mixture thereof. Silica gel or desiccant in air permeable bag may be used optionally along with inert gas in the polythene bag or container.
(§2) Stability study with improved packing (inert atmosphere):
Initial and up to two-month stability profile for the hygroscopic active substance Ziprasidone HCl is shown below:
The stability studies were carried out at 40° C. and 75% relative humidity condition.

[3] = Stability study with improved packing (inert atmosphere), 25° C. and 60% relative humidity; details: 25° C./60% RH
Excerpt: as §1, §2
The stability studies were also carried out at 25° C. and 60% relative humidity condition.

[4] = X-ray powder diffractogram of initial and two-month stability samples; details: Cu K alpha-1 radiation
Procedure: X-Ray diffractograms of active substance Ziprasidone HCl (Initial and after two month sample) were recorded on Bruker Axe, DS Advance Powder X-ray Diffractometer with Cu K alpha-1 Radiation source. The characteristic X-ray diffractogram of Ziprasidone hydrochloride was found similar.

[5] = Crystal size distribution / mean particle size D[4,3] (Malvern)
Procedure: Ziprasidone hydrochloride (3 Kg) in formic acid (4.5 L) was heated to 60-65° C. for clear dissolution. The solution was filtered to remove any solid particles and the filtrate was cooled to 50-55° C. Ziprasidone hydrochloride (7.5 gm) as seed compound was added to the cooled filtrate. After stirred for 2 hr at 50-55° C., the resulting solution was cooled slowly to 25-35° C. over 1 to 1.5 hour. Ethyl acetate (13.5 L) was added slowly at 25-35° C. over 2 hrs. The resulting mass was stirred for 30-45 min at 25-35° C. The compound was filtered under nitrogen atmosphere. The filtered wet compound was added to acetic acid (10 L) at 25-35° C. under nitrogen atmosphere, and the resulting mixture was stirred for 30-45 min at 25-35° C. The compound was filtered under nitrogen atmosphere, washed with ethyl acetate (10 L), and then dried the compound at 60° C. under reduced pressure for 3-4 hrs and then at 110-120° C. to get the Ziprasidone hydrochloride (2.2 Kg). The product purity by HPLC was analyzed as 99.8%. The crystal size distribution as measured by Malvern was: D10<18.75 micron, D50=114.82 micron, […] and the mean particle size or D[4,3]=123.8 micron.

[6] = Example 15, crystal size distribution by Malvern

Q: What does the source list for `Cl.O=C1Cc2cc(CCN3CCN(c4nsc5ccccc45)CC3)c(Cl)cc2N1` [Ziprasidone hydrochloride, 5-(2-(4-(1,2-benzisothiazol-3-yl)-1-piperazinyl)ethyl)-6-chloro-1,3-dihydro-2H-indol-2-one hydrochloride]?
A: Moisture content ([1]; Initial): 0.25% w/w; Moisture content ([1]; One month): 3.45% w/w; Moisture content ([1]; Two month): 4.83% w/w; Assay ([2]; Initial): 99.4% w/w; Moisture content ([2]; Initial): 0.54% w/w; Total Impurity ([2]; Initial): 0.19% w/w; Assay ([2]; One month): 99.4% w/w; Moisture content ([2]; One month): 0.41% w/w; Total Impurity ([2]; One month): 0.19% w/w; Assay ([2]; Two month): 99.7% w/w; Moisture content ([2]; Two month): 0.54% w/w; Total Impurity ([2]; Two month): 0.20% w/w; Assay ([3]; Initial): 99.4% w/w; Moisture content ([3]; Initial): 0.54% w/w; Total Impurity ([3]; Initial): 0.19% w/w; Assay ([3]; One month): 99.2% w/w; Moisture content ([3]; One month): 0.38% w/w; Total Impurity ([3]; One month): 0.18% w/w; Assay ([3]; Two month): 99.3% w/w; Moisture content ([3]; Two month): 0.48% w/w; Total Impurity ([3]; Two month): 0.21% w/w; X-ray diffractogram, initial versus after two month sample [4]: similar; mean particle size or D[4,3] ([5]; Example 12: reactive crystallization from base in formic acid with HCl in ethyl acetate): 94.1 micron; mean particle size or D[4,3] ([5]; Example 13: formic acid solvent, ethyl acetate anti-solvent, 30° C.): 101.1 micron; mean particle size or D[4,3] ([5]; Example 14: seeded cooling crystallization from formic acid): 264.5 micron; D10 [5, 6]: < 18.75 micron; D50 [5, 6]: 114.82 micron; D60 [5, 6]: < 236.5 micron; mean particle size or D[4,3] ([5]; Example 15: seeded, formic acid / ethyl acetate anti-solvent, acetic acid slurry): 123.8 micron; mean particle size or D[4,3] ([5]; Example 16: reverse addition of formic acid solution into hot seeded ethyl acetate, 1.5 Kg): 156.2 micron; D[4,3] ([5]; Example 17: reverse addition of formic acid solution into hot seeded ethyl acetate, 20 Kg): 132.2 micron
